Experimental data: PMC10528299, “Targeting FAK/PYK2 with SJP1602 for Anti-Tumor Activity in Triple-Negative Breast Cancer” (Current Issues in Molecular Biology, 2023)

Columns and labels:
Assay in all cases: Eurofins kinase profiling
Type in all cases: biochemical
cKit(V560G)(h) = biological target: T1, cKit(V560G)(h) (Homo sapiens, UniProt P10721, V560G); conditions: read-out: residual kinase activity cKit(V560G)(h)
T1 construct: purchased Eurofins KinaseProfiler
Method: (§1) The kinase profiling analysis was performed at Eurofins (Poitiers, France). A total of 110 kinase assays were carried out according to Eurofins’ standard protocols. For protein kinase assays, the kinase activity was measured using Eurofins’ KinaseProfiler radiometric assay. In this assay, a panel of kinases was incubated with the test compound SJP1602 at a concentration of 1 µM, and the kinase activity was determined using radiolabeled phosphate as a substrate. Lipid and atypical kinase assays were conducted using Eurofins’ homogeneous time-resolved fluorescence assay. The same panel of kinases was incubated with SJP1602 at a concentration of 1 µM, and the activity of lipid and atypical kinases was measured using this assay.

Axl(h) = biological target: T2, Axl(h) (Homo sapiens, UniProt P30530); conditions: read-out: residual kinase activity Axl(h)
T2 construct: purchased Eurofins KinaseProfiler
T2 sequence (P30530 26-894): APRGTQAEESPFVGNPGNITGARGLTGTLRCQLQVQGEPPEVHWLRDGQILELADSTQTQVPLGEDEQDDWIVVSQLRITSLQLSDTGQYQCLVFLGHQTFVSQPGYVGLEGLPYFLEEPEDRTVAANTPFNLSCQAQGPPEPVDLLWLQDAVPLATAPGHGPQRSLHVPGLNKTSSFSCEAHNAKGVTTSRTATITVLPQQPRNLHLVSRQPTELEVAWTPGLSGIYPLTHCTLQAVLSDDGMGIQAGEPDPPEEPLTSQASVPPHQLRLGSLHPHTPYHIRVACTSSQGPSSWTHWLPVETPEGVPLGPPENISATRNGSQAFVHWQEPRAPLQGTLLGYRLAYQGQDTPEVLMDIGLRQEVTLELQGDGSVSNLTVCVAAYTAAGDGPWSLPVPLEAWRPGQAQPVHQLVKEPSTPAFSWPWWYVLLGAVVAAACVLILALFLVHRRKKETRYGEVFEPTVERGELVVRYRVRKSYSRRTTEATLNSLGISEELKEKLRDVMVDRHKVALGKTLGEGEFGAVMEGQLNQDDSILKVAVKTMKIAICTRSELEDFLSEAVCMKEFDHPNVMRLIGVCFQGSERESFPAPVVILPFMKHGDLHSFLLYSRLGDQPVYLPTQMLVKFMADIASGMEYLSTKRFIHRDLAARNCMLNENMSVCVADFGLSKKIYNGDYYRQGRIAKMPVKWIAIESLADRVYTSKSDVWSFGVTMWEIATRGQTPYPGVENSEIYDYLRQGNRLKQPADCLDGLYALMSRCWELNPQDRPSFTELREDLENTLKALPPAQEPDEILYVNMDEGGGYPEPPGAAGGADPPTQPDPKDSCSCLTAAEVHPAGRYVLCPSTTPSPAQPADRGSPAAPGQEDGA
Method: as §1

Ret(h) = biological target: T3, Ret(h) (Homo sapiens, UniProt P07949); conditions: read-out: residual kinase activity Ret(h)
T3 construct: purchased Eurofins KinaseProfiler
Method: as §1

ZAP-70(h) = biological target: T4, ZAP-70(h) (Homo sapiens, UniProt P43403); conditions: read-out: residual kinase activity ZAP-70(h)
T4 construct: purchased Eurofins KinaseProfiler
T4 sequence (P43403 1-619): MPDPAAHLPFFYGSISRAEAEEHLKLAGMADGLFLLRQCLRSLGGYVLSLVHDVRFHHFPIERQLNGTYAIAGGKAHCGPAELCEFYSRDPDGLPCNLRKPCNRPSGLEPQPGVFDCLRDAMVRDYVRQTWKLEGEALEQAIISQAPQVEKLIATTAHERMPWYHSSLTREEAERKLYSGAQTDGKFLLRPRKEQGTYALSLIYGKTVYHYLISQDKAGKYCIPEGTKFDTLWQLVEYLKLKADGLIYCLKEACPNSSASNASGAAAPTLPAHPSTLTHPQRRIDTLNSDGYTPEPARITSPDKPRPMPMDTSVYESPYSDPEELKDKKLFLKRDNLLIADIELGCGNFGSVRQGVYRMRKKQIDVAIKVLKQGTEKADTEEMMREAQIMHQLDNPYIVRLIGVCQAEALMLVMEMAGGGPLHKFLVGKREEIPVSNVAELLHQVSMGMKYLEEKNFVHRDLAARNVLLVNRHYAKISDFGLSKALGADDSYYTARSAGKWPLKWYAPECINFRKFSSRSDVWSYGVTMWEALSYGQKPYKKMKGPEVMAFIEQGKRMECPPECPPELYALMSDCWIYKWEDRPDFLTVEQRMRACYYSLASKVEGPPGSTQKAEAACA
Method: as §1

PKCθ(h) = biological target: T5, PKCθ(h) (Homo sapiens, UniProt Q04759); conditions: read-out: residual kinase activity PKCθ(h)
T5 construct: purchased Eurofins KinaseProfiler
Method: as §1

EGFR(T790M)(h) = biological target: T6, EGFR(T790M)(h) (Homo sapiens, UniProt P00533, T790M); conditions: read-out: residual kinase activity EGFR(T790M)(h)
T6 construct: purchased Eurofins KinaseProfiler
Method: as §1

IR(h), activated = biological target: T7, IR(h), activated (Homo sapiens, UniProt P06213); conditions: 1 µM
T7 construct: purchased Eurofins KinaseProfiler
Method: as §1

p70S6K(h) = biological target: T8, p70S6K(h) (Homo sapiens, UniProt P23443); conditions: read-out: residual kinase activity p70S6K(h)
T8 construct: purchased Eurofins KinaseProfiler
Method: as §1

T7 sequence (P06213 28-1382): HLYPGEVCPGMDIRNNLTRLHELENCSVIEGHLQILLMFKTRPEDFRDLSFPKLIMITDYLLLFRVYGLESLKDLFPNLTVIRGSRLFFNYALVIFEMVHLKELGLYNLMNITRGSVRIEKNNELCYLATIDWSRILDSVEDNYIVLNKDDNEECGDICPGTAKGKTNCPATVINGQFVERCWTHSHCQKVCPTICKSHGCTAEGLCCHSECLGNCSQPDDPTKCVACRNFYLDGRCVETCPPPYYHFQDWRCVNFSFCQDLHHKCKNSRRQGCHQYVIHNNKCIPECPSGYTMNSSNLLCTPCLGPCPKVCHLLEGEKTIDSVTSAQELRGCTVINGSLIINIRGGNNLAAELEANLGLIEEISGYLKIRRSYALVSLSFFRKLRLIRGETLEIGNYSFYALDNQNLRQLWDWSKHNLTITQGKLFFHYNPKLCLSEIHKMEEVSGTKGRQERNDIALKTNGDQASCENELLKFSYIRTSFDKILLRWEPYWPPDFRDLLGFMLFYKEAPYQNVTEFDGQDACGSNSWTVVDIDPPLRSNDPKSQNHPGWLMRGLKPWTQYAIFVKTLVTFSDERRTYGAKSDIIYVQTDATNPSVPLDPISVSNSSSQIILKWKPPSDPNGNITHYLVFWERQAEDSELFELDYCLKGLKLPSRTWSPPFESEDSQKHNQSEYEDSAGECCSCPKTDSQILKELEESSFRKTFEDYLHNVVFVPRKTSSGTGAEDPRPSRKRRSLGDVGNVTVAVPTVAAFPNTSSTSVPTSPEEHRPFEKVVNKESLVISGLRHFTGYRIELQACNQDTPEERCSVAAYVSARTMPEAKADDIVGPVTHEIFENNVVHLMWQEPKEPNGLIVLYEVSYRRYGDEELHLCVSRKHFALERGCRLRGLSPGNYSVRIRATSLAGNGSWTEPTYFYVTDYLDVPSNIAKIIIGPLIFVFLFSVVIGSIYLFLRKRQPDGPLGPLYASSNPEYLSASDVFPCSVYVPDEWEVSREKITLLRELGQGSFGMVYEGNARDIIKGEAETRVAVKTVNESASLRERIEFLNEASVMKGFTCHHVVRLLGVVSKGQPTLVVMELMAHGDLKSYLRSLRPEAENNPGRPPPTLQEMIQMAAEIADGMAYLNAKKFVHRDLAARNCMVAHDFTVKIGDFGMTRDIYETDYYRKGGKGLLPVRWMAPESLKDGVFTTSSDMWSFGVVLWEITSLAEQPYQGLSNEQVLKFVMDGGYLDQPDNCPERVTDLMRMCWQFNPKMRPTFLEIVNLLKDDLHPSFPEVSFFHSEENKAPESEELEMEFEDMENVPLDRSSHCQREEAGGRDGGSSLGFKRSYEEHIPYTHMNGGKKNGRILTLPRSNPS
T6 sequence (P00533 25-1210 T790M): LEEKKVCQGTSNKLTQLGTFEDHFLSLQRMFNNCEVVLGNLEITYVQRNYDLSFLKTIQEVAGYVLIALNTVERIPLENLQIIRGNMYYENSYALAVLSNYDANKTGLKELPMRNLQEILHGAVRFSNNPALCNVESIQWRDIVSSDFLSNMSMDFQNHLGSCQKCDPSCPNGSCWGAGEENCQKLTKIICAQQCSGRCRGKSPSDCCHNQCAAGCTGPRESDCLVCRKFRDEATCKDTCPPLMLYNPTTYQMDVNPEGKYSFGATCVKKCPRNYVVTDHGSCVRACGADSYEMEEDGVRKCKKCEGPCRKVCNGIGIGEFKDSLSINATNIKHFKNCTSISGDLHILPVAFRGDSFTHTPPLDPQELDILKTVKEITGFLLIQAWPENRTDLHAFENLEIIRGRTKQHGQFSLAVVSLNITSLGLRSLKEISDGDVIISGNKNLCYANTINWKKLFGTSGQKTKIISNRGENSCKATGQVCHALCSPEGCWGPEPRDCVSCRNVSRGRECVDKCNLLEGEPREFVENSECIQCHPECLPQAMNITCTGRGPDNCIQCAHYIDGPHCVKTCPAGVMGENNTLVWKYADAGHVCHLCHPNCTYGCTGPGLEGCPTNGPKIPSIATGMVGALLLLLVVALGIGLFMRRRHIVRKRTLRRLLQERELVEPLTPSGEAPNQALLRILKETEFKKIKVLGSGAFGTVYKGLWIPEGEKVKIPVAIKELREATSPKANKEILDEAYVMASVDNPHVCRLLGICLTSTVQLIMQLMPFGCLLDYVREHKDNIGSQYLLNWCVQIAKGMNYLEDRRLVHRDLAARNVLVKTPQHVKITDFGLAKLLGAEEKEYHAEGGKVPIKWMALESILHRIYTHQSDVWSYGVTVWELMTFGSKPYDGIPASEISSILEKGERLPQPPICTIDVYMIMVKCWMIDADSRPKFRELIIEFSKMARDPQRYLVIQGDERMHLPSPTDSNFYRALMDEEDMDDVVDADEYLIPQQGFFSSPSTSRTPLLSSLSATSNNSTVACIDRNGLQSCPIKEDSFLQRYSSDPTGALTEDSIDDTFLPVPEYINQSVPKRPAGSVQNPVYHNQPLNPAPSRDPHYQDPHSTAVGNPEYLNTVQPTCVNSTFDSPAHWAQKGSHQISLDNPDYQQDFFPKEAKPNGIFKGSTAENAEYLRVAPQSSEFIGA
T8 sequence (P23443 whole entry): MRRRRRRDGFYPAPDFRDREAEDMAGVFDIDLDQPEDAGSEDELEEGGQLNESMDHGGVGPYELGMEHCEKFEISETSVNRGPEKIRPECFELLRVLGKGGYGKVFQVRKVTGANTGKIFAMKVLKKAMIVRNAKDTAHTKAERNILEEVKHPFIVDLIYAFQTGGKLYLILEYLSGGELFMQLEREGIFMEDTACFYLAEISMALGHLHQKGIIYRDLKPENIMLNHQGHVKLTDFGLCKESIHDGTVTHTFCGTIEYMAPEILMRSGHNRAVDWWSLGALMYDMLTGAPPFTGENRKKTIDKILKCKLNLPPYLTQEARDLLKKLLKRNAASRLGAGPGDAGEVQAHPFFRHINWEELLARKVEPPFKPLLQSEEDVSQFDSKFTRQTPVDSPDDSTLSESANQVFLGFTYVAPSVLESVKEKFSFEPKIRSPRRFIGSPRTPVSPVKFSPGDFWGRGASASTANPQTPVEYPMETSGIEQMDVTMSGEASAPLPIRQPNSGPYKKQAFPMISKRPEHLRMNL
T1 sequence (P10721 26-976 V560G): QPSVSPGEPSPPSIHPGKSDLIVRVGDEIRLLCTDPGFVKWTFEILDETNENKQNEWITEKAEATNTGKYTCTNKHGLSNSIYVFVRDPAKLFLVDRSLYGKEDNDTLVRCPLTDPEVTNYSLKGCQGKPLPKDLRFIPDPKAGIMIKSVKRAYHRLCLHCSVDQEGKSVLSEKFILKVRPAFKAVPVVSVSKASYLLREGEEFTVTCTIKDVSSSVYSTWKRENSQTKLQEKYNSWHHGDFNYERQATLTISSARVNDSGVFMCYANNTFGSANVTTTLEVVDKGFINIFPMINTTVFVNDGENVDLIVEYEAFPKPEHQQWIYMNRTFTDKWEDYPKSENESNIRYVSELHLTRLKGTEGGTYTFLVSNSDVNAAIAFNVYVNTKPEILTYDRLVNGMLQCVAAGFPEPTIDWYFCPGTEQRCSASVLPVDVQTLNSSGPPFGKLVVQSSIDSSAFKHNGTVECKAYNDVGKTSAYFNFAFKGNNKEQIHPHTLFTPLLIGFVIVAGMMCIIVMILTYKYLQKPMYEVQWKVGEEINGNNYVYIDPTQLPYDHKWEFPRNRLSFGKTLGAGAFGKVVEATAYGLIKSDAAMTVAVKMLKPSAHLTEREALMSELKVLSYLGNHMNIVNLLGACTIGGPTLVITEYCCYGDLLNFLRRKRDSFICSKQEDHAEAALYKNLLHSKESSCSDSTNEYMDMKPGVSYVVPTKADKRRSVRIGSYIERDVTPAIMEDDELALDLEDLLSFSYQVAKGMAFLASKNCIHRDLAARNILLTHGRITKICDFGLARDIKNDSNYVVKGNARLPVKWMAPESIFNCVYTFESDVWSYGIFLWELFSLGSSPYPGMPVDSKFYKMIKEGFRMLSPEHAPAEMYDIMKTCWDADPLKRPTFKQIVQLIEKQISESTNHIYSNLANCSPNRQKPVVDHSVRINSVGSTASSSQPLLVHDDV
T3 sequence (P07949 29-1114): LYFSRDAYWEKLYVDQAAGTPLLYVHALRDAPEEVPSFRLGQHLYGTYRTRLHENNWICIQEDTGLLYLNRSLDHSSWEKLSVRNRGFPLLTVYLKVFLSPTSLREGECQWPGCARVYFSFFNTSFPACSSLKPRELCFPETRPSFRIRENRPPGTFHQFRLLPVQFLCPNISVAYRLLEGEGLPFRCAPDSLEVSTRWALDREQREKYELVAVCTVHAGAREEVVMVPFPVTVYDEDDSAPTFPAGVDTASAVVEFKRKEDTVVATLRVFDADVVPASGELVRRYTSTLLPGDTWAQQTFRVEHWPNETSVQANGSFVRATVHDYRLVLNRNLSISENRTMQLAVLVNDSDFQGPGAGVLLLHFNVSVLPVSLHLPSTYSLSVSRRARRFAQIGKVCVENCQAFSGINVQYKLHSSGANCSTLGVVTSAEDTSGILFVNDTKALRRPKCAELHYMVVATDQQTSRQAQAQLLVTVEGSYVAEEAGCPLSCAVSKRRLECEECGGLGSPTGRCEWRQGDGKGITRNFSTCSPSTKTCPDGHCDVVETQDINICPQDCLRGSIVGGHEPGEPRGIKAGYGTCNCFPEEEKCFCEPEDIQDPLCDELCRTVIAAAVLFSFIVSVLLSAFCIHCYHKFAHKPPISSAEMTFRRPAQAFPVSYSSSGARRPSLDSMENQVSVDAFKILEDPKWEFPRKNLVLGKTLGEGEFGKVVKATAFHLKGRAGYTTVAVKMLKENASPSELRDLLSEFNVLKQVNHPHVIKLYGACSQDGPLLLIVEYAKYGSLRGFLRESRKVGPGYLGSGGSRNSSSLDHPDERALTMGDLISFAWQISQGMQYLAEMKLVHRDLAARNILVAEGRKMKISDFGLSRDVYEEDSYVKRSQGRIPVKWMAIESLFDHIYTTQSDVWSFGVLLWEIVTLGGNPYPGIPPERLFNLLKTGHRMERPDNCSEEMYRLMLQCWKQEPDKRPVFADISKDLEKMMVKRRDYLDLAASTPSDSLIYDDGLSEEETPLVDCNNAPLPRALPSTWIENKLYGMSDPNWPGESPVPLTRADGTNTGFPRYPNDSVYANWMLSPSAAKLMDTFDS

remaining activity at 1 µM (cKit(V560G)(h))	remaining activity at 1 µM (Axl(h))	remaining activity at 1 µM (Ret(h))	remaining activity at 1 µM (ZAP-70(h))	remaining activity at 1 µM (PKCθ(h))	remaining activity at 1 µM (EGFR(T790M)(h))	residual kinase activity IR(h), activated (IR(h), activated)	remaining activity at 1 µM (p70S6K(h))	Structure (SMILES)
104%	84%	117%	105%	96%	106%	76	69%	CONC(=O)c1ccccc1Nc1cc(Nc2cc(C)nn2C(C)C)ncc1Cl [GSK2256098]
74%	57%	39%	139%	63%	82%	30	98%	CNC(=O)c1ccc(Nc2ncc(C(F)(F)F)c(NCc3nccnc3N(C)S(C)(=O)=O)n2)cc1 [VS-6063, Defactinib]

Structure (SMILES)	remaining activity at 1 µM (cKit(V560G)(h))	remaining activity at 1 µM (Axl(h))	remaining activity at 1 µM (Ret(h))	remaining activity at 1 µM (ZAP-70(h))	remaining activity at 1 µM (PKCθ(h))	remaining activity at 1 µM (EGFR(T790M)(h))	residual kinase activity IR(h), activated (IR(h), activated)	remaining activity at 1 µM (p70S6K(h))
CNC(=O)c1cccc(C)c1Nc1nc(Nc2ccc(N3CCN(C4C5CC6CC4CC(O)(C6)C5)CC3)cc2OC)ncc1C(F)(F)F (stereo not drawn) [SJP1602, 2-((2-((4-(4-((2s,5r)-5-hydroxyadamantan-2-yl)piperazin-1-yl)-2-methoxyphenyl)amino)-5-(trifluoromethyl)pyrimidin-4-yl)amino)-N,3-dimethylbenzamide]	136%	105%	111%	124%	93%	119%	61	124%
